From paper PMC7570662, “In Vivo Pharmacokinetic Analysis Utilizing Non-Targeted and Targeted Mass Spectrometry and In Vitro Assay against Transient Receptor Potential Channels of Maobushisaishinto and Its Constituent Asiasari Radix” (Molecules, 2020)

Assay: Qualitative non-targeted LC-HRMS analysis of AR compounds in rat plasma after oral AR or MBST
Assay type: in vivo
Protocol: Extract powders of AR or MBST were suspended in distilled water and orally administered to rats having fasted for approximately 16 h. The dose of AR was set at 2 g/kg, and the MBST doses were set at 1 and 2 g/kg. 1 g/kg MBST contained 578 µg/kg, 147 µg/kg, 226 µg/kg, 426 µg/kg asarinin, sesamin, methyl kakuol, and amide A, respectively. The doses were chosen based on a previous pharmacological study of MBST using rats.
According to previous pharmacokinetic studies of herbal medicines, many of the components were quickly absorbed into the bloodstream, thereby providing the rationale for a sampling time at 1 h. Blood was centrifuged at 1200× g at 4 °C for 30 min to obtain plasma; then, the sample was stored at −80 °C until LC-HRMS analysis. […]
The plasma samples were collected at 1 h after MBST administration in case of both the qualitative (non-targeted) analysis and the quantitative (targeted) analysis.
The plasma samples of AR- or MBST-treated rats collected at 1 h post-administration were pretreated by deproteinization using methanol before the LC-HRMS analysis as follows: 100 µL plasma sample was mixed with 500 µL methanol, and the resultant solution was vortexed for 2 min. The mixture was centrifuged at 7000× g at 4 °C for 5 min. The supernatant was dried using a centrifugal evaporator, and the dried residue was dissolved in 100 μL of the initial LC mobile phase which is composed of 0.1 vol% formic acid in water/acetonitrile (99.9/0.1, v/v) and recentrifuged at 7000× g at 4 °C for 5 min. Finally, a 5 μL aliquot of the supernatant was injected into the LC-HRMS system comprised of an Acquity Ultra-Performance Liquid Chromatography System (Waters, Milford, MA, USA) and a Xevo G2-XS quadrupole time-of-flight MS (Waters) and was chromatographically separated using an ACQUITY UPLC HSS T3 column (2.1 × 150 mm I.D., 1.8-μm particle size; Waters) with an ACQUITY UPLC HSS T3 VanGuard Pre-column (2.1 mm × 5 mm I.D., 1.8-μm particle size; Waters) at 40 °C. The mobile phase consisted of solution A (0.1% formic acid, v/v) and solution B (acetonitrile) with a gradient of solution B (0.1%, 0 min; 99%, 24 min; v/v) at a flow rate of 0.4 mL/min. The analysis of the mass spectrometer fit with an electrospray ionization probe with sensitivity mode was performed for both the positive and negative ion mode. The resolution of the mass spectrometer was set at >20,000. For MS^E experiments, two acquisition functions with different collision energies were created: a low-energy function with a collision energy of 6 eV and a high-energy function with collision energy ranging from 15 to 40 eV.

Compound | AR-Treated Rat Plasma (detection of compound) (rat plasma 1 h after oral 2 g/kg AR, n = 1, LC-HRMS) | MBST-Treated Rat Plasma (detection of compound) (rat plasma 1 h after oral 2 g/kg MBST, n = 3, LC-HRMS) | Detection in plasma of rats treated with AR or MBST (non-targeted analysis) (rat, in vivo, po)
(2E,4E,9E)-8,11-Dihydroxy-N-isobutyl-2,4,9-dodecatrienamide, (2E,4E,8Z)-10,11-Dihydroxy-N-isobutyl-2,4,8-dodecatrienamide | + (The number of plus signs represents the sample number in which the compound was detected among AR-treated rat plasma (n = 1) and MBST-treated rat plasma (n = 3)) | + + + (The number of plus signs represents the sample number in which the compound was detected among AR-treated rat plasma (n = 1) and MBST-treated rat plasma (n = 3)) | –
C/C=C/C=C\CC/C=C/C(=O)NCC(C)C [Spilanthol] | – | – | not detected
